This is an account of results in patent EP4043466B1, “PRC2 INHIBITORS” (Mirati Therapeutics, Inc., priority 2018, dated 2019).

For test [1], the target named is purified human, His-tagged PRC2 complex (Homo sapiens, UniProt O75530+Q15910). Put plainly: Hot Spot HMT assay: inhibition of PRC2 enzymatic activity (transfer of tritiated methyl from SAM to core histone, filter binding). The format is biochemical. The note with it: Inhibition of PRC2-mediated enzymatic activity; 10 nM PRC2 complex, 0.05 mg/ml core histone H3, 1 uM 3H-SAM, 1 hr at 30°C. The procedure, abridged: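 Serial compound dilutions starting at 1.0 µM were pre-incubated 20 min at 30°C with 10 nM complex (His-EZH2, Flag-EED, His-SUZ12, His-AEBP2, His-RbAp48) and 0.05 mg/ml core H3. Reaction ran 1 hr at 30°C after adding 1 uM [3H]-SAM; scintillation counting followed filtration.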
Chain of purified human, His-tagged PRC2 complex (Q15910 whole entry): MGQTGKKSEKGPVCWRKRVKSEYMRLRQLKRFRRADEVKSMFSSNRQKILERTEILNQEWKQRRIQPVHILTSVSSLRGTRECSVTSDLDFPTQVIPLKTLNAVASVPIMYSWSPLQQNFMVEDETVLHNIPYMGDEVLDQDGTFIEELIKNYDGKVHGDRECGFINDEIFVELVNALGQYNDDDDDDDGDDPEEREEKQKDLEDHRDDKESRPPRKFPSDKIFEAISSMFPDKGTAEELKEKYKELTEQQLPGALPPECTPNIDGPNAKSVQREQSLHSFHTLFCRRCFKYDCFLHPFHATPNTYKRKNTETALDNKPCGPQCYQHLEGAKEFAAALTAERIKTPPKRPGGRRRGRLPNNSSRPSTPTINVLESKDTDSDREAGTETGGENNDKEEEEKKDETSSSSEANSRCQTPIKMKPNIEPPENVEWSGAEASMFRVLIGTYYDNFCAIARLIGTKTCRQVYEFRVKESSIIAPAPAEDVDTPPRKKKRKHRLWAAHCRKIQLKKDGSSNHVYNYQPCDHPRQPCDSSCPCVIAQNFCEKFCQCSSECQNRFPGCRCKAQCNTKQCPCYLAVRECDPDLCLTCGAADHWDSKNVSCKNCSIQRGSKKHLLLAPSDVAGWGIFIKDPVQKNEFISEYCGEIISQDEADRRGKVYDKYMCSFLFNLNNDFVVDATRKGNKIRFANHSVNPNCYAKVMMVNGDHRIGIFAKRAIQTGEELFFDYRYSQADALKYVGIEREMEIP
Chain of purified human, His-tagged PRC2 complex (O75530 whole entry): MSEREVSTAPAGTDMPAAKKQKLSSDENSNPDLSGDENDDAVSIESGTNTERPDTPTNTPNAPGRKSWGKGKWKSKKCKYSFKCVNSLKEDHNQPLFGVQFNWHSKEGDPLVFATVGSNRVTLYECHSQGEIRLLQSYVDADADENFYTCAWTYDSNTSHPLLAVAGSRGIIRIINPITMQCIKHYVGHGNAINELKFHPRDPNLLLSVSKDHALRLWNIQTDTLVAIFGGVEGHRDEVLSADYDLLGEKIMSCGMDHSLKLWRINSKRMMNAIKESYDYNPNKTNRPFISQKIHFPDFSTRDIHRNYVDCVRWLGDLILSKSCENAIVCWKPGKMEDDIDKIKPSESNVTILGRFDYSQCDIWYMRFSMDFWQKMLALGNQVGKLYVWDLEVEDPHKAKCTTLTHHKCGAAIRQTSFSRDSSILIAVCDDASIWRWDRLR
Chain of purified human, His-tagged PRC2 complex (Q15022 whole entry partner): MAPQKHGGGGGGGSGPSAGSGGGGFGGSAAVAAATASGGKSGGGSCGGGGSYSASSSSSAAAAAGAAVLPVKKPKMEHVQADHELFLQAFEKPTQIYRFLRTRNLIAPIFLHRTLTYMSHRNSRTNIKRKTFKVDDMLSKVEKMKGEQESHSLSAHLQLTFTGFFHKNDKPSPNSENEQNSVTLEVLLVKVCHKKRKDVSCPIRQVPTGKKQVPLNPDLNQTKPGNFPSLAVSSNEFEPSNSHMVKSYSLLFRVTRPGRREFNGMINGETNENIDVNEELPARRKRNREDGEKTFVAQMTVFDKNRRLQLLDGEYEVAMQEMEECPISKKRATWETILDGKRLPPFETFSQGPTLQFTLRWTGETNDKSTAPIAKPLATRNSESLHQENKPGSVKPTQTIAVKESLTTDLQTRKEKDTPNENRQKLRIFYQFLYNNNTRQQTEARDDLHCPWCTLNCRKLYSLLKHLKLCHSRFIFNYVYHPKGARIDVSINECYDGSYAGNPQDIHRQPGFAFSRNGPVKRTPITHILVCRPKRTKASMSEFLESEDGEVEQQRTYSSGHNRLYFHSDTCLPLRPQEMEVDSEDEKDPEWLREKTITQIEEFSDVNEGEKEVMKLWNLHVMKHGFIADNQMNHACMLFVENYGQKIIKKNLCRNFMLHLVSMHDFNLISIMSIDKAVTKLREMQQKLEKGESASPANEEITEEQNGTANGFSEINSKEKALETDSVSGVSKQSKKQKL
Chain of purified human, His-tagged PRC2 complex (Q6ZN18 whole entry partner): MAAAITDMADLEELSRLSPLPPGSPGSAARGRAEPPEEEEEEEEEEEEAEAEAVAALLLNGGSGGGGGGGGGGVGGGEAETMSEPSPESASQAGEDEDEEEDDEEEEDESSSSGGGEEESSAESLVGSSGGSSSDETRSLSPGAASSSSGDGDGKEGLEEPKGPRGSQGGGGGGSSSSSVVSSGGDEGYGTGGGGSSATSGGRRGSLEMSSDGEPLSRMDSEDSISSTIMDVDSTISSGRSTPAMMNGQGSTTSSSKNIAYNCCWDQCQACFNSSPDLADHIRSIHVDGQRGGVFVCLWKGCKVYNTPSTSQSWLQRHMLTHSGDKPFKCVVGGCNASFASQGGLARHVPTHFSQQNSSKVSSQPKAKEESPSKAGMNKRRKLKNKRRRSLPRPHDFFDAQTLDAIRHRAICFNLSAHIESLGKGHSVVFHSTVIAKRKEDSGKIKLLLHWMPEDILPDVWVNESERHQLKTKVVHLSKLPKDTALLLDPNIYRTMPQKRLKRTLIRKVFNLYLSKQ
Chain of purified human, His-tagged PRC2 complex (Q09028 whole entry partner): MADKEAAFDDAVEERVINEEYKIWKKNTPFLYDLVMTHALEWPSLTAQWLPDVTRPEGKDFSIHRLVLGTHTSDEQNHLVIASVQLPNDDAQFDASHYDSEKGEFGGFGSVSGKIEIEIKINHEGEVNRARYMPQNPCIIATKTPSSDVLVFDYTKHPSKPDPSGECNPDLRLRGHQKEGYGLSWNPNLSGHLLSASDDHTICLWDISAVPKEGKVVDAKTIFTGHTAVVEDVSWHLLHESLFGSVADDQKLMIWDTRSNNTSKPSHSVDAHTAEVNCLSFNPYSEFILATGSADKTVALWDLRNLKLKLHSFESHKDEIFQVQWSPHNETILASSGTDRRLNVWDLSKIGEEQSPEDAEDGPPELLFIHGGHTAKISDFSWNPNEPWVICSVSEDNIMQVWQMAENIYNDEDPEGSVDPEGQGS

Test [2] deals with PRC2-mediated histone H3 methylation. Put plainly: Tri-Methyl Histone H3 (Lys 27) Sandwich ELISA in Pfeiffer cells: inhibition of PRC2-mediated histone H3 methylation. The format is cell-based, human. The following applies: Inhibition of EZH2-mediated histone H3 trimethylation, Pfeiffer cells (EZH2 A677G), 96 hours incubation. An excerpt: The Pfeiffer cell line was established from a […] from a patient having metastatic diffuse large B-cell lymphoma (DLBCL). This cell line expresses a mutant form of the EZH2 enzyme (A677G) that results in enhanced EZH2 activity leading to increased methylation of histone H3 Lys27. Increased trimethylation of histone H3 Lys27 is believed to be implicated in tumorgenesis and poor clinical prognosis in lymphomas (McCabe et al., (2012) Nature 492:108-112).
Inhibition of PRC2-mediated histone H3 methylation by compounds of Formula (I) was measured by ELISA using a Tri-Methyl Histone H3 (Lys 27) Sandwich ELISA Kit (Cell Signaling Tech #7866C) in accordance with the manufacturer's instructions. Briefly, Pfeiffer cells were cultured in RPMI medium supplemented with 10% fetal bovine serum and 1% penicillin and 1% streptomycin in 96 well culture plates at 37°C to a density of 8000 cells/90µl/well and the cells were harvested. A series of 3-fold serial dilutions of each test compound of Formula (I) were prepared in RPMI medium and added to the cells at final concentrations ranging from 1µM to 0.15 nM. The plates were incubated at 37°C for 96 hours.
After incubation, the cells were pelleted by centrifugation in a pre-cooled 4°C rotor at 1, 100 rpm for 10 min and the supernatant was removed by aspiration. The cell pellet was resuspended in 55µl of Lysis Buffer (0.4M HCl) and incubated on ice with periodic shaking for 30 minutes. The lysed cells were subjected to centrifugation at 4, 200 rpm for 10 min at 4°C and the supernatant containing acid-soluble proteins was collected and the remainder discarded. The acid-soluble proteins were brought to a neutral pH by the addition of 20 µl of Neutralization Buffer (1 M Sodium phosphate, dibasic (pH 12.5), 2.5 mM DTT and 1 mM PMSF) and the neutralized lysates were analyzed by ELISA.
A 65 µl aliquot of each cell lysate was added to a well of a microwell strip, the microwells were sealed using tape and incubated either at 37°C for two hours or at 4°C overnight. After incubation, the tape was removed at the microwells were washed four times using 200 µl of 1X Wash Buffer. To each washed microwell, a 100 µl aliquot of an antitrimethyl histone H3 Lys27 Detection Antibody solution was added and the microwells were incubated at 37°C for one hour. The Detection Antibody solution was removed by aspiration and the wells were washed four times each using 200 µl of 1X Wash Buffer.
A 100 µl aliquot of an HRP-linked secondary antibody was added to each well, the wells were sealed with tape and incubated at 37°C for 30 min. The HRP-linked secondary antibody solution was removed by aspiration and the wells were washed four times using 200 µl of 1X Wash Buffer. A 100 µl aliquot of a TMB substrate was added to each well, the wells were sealed with tape and incubated at 37°C for 10 min or 25°C for 30 min. The reaction was stopped by the addition of 100 µl aliquot of a STOP solution and the plate was shaken briefly. The degree of histone H3 trimethylation was determined using a spectrophotometric readout by measuring the absorbance at 450 nm and then calculating the amount of trimethylated histone H3. A = ≤100 nM; B = >100 nM - ≤500 nM; C = >500 nM and N.D. = not determined.

The subject of a further test is Karpas 422 cells. Put plainly: Karpas 422 cell viability, CTG (Cell Titre Glo) assay. The format is cell-based, human. The note with it: Inhibition of proliferation of Karpas 422 cells (EZH2 Y641N), viability measured Day 4, Day 7 or Day 11, time point of the tabulated values not stated. Put shortly:
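CellTiter-Glo viability IC50s taken at Day 4, Day 7 and Day 11 of continuous compound exposure (3-fold series, 10µM top, 1.5nM lowest) in RPMI/20% FBS at 37 °C. Y641N-mutant EZH2 lymphoma line seeded at 1000 cells per well; medium and compound replaced on Day 7 for Day 11 read.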

A value given as a limit tells only on which side of the number the result lay.

“5-(2-cyano-5-(((5-fluoro-2,3-dihydrobenzofuran-4-yl)methyl)amino)imidazo[1,2-c]pyrimidin-8-yl)-1-methyl-1H-pyrazole-3-carboxylic acid [Example 157]”: the IC50 in test [1] was less than 100 nM; in test [2], not above 100 nM; in the test on Karpas 422 cells, not above 250 nM.

For the compound `Cc1cc(C2CCCN2)ccc1-c1cnc(NCc2c(F)ccc3c2CCO3)n2cc(C#N)nc12` (single isomer, unassigned) [Example 213, 5-(((5-fluoro-2,3-dihydrobenzofuran-4-yl)methyl)amino)-8-(2-methyl-4-(pyrrolidin-2-yl)phenyl)imidazo[1,2-c]pyrimidine-2-carbonitrile], the IC50 in test [2] (Homo sapiens) was 100 to 500 nM; in the test on Karpas 422 cells (Homo sapiens), not above 250 nM.

With `Cc1cc(-c2cnc(NCc3c(F)ccc4c3CCO4)n3cc(C(=O)O)nc23)n(C)n1` [Example 1, 8-(1,3-dimethyl-1H-pyrazol-5-yl)-5-(((5-fluoro-2,3-dihydrobenzofuran-4-yl)methyl)amino)imidazo[1,2-c]pyrimidine-2-carboxylic acid], the IC50 (in test [2] (Homo sapiens); in the test on Karpas 422 cells (Homo sapiens)) was more than 500 nM each time.

As to `Cc1ncccc1-c1cnc(NCc2c(F)ccc3c2CCO3)n2cc(C(=O)O)nc12` [Example 2, 5-(((5-fluoro-2,3-dihydrobenzofuran-4-yl)methyl)amino)-8-(2-methylpyridin-3-yl)imidazo[1,2-c]pyrimidine-2-carboxylic acid], the IC50 (in test [2] (Homo sapiens); in the test with Karpas 422 cells (Homo sapiens)) was more than 500 nM each time.

Take `N#Cc1cn2c(NCc3c(F)ccc4c3CCO4)ncc(-c3ccccc3)c2n1` [Example 46, 5-(((5-fluoro-2,3-dihydrobenzofuran-4-yl)methyl)amino)-8-phenylimidazo[1,2-c]pyrimidine-2-carbonitrile]: the 50% inhibitory concentration (IC50) in test [1] was less than 100 nM; in test [2] (Homo sapiens) it was 100 to 500 nM.

For the compound `N#Cc1cn2c(NCc3c(F)ccc4c3CCO4)ncc(-c3ccc(CN4CC(F)(F)C4)cc3)c2n1` [Example 51, 8-(4-((3,3-difluoroazetidin-1-yl)methyl)phenyl)-5-(((5-fluoro-2,3-dihydrobenzofuran-4-yl)methyl)amino)imidazo[1,2-c]pyrimidine-2-carbonitrile], the concentration for half-maximal inhibition (IC50) in test [1] was less than 100 nM; in test [2] (Homo sapiens) it was not above 100 nM.

Turning to `N#Cc1cn2c(NCc3c(F)ccc4c3CCO4)ncc(-c3ccc(CN4CC5CC5C4)cc3)c2n1` (stereo not shown) [Example 52, 8-(4-((3-azabicyclo[3.1.0]hexan-3-yl)methyl)phenyl)-5-(((5-fluoro-2,3-dihydrobenzofuran-4-yl)methyl)amino)imidazo[1,2-c]pyrimidine-2-carbonitrile], the results for the 50% inhibitory concentration (IC50) in test [1] and in test [2] (Homo sapiens) were less than 100 nM and not above 100 nM, respectively.

Take `CN(C)Cc1ccc(-c2cnc(NCc3c(F)ccc4c3CCO4)n3cc(C#N)nc23)cc1F` [Example 63, 8-(4-((dimethylamino)methyl)-3-fluorophenyl)-5-(((5-fluoro-2,3-dihydrobenzofuran-4-yl)methyl)amino)imidazo[1,2-c]pyrimidine-2-carbonitrile]: the IC50 is less than 100 nM in test [1] and not above 100 nM in test [2] (Homo sapiens).

`N#Cc1cn2c(NCc3c(F)ccc4c3CCO4)ncc(-c3cnn4c3CCC4)c2n1` [Example 80, 8-(5,8-dihydro-4H-pyrrolo[1,2-b]pyrazol-3-yl)-5-(((5-fluoro-2,3-dihydrobenzofuran-4-yl)methyl)amino)imidazo[1,2-c]pyrimidine-2-carbonitrile]: the IC50 in test [1] is less than 100 nM; in test [2] (Homo sapiens), 100 to 500 nM.

With `CC(c1ccc(-c2cnc(NCc3c(F)ccc4c3CCO4)n3cc(C#N)nc23)cc1)N1CCCC1` (stereo not shown) [Example 90, 5-(((5-fluoro-2,3-dihydrobenzofuran-4-yl)methyl)amino)-8-(4-(1-(pyrrolidin-1-yl)ethyl)phenyl)imidazo[1,2-c]pyrimidine-2-carbonitrile], the IC50 in test [1] was less than 100 nM; in test [2] (Homo sapiens), not above 100 nM.

`Cn1nc(C(F)(F)F)cc1-c1cnc(NCc2c(F)ccc3c2CCO3)n2cc(C#N)nc12` [Example 111, 5-(((5-fluoro-2,3-dihydrobenzofuran-4-yl)methyl)amino)-8-(1-methyl-3-(trifluoromethyl)-1H-pyrazol-5-yl)imidazo[1,2-c]pyrimidine-2-carbonitrile]: the IC50 in test [1] was less than 100 nM; in test [2] (Homo sapiens), not above 100 nM.

Take `COc1cc(-c2cnc(NCc3c(F)ccc4c3CCO4)n3cc(C#N)nc23)c(F)cn1` [Example 123, 5-(((5-fluoro-2,3-dihydrobenzofuran-4-yl)methyl)amino)-8-(5-fluoro-2-methoxypyridin-4-yl)imidazo[1,2-c]pyrimidine-2-carbonitrile]: the IC50 in test [1] is less than 100 nM; in test [2] (Homo sapiens), not above 100 nM.

Consider `Cn1nncc1-c1cnc(NCc2c(F)ccc3c2CCO3)n2cc(C#N)nc12` [Example 143, 5-(((5-fluoro-2,3-dihydrobenzofuran-4-yl)methyl)amino)-8-(1-methyl-1H-1,2,3-triazol-5-yl)imidazo[1,2-c]pyrimidine-2-carbonitrile], for which the IC50 in test [1] was less than 100 nM; in test [2] (Homo sapiens), not above 100 nM.

Consider `N#Cc1cn2c(NCc3c(F)ccc4c3CCO4)ncc(-c3cccnc3CO)c2n1` [Example 148, 5-(((5-fluoro-2,3-dihydrobenzofuran-4-yl)methyl)amino)-8-(2-(hydroxymethyl)pyridin-3-yl)imidazo[1,2-c]pyrimidine-2-carbonitrile], for which the IC50 in test [1] is less than 100 nM; in test [2] (Homo sapiens), 100 to 500 nM.

For the compound `N#Cc1cn2c(NCc3c(F)ccc4c3CCO4)ncc(-c3ccc(CN4CC(O)C4)cc3)c2n1` [Example 150, 5-(((5-fluoro-2,3-dihydrobenzofuran-4-yl)methyl)amino)-8-(4-((3-hydroxyazetidin-1-yl)methyl)phenyl)imidazo[1,2-c]pyrimidine-2-carbonitrile], the IC50 was less than 100 nM in test [1] and not above 100 nM in test [2] (Homo sapiens).

Turning to `Cc1ccc(C#N)cc1-c1cnc(NCc2c(F)ccc3c2CCO3)n2cc(C#N)nc12` [Example 177, 8-(5-cyano-2-methylphenyl)-5-(((5-fluoro-2,3-dihydrobenzofuran-4-yl)methyl)amino)imidazo[1,2-c]pyrimidine-2-carbonitrile], the IC50 in test [1] and in test [2] (Homo sapiens) was 100 to 500 nM throughout.

With `Cn1nc(C(=O)N2CCOCC2)cc1-c1cnc(NCc2c(F)ccc3c2CCO3)n2cc(C#N)nc12` [Example 209, 5-(((5-fluoro-2,3-dihydrobenzofuran-4-yl)methyl)amino)-8-(1-methyl-3-(morpholine-4-carbonyl)-1H-pyrazol-5-yl)imidazo[1,2-c]pyrimidine-2-carbonitrile], the IC50 was not above 100 nM in test [2] (Homo sapiens) and not above 250 nM in the test on Karpas 422 cells (Homo sapiens).

Regarding `Cn1cc(-c2cnc(NCc3c(F)ccc4c3CCO4)n3cc(C#N)nc23)c(C#N)n1` [Example 224, 8-(3-cyano-1-methyl-1H-pyrazol-4-yl)-5-(((5-fluoro-2,3-dihydrobenzofuran-4-yl)methyl)amino)imidazo[1,2-c]pyrimidine-2-carbonitrile], the IC50 in test [1] and in test [2] (Homo sapiens) was 100 to 500 nM in each case.
